Laboratory results: PubChem BioAssay (NCI)
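In this assay, cells in 96-well plates receive the compound at five concentrations for 48 hours. Endpoints are linearly interpolated between the surrounding concentrations. At the GI50, growth is halved. TGI is the concentration that stops growth completely.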

Experiments:
Experiment in all cases: growth of human tumour cells (NCI), 48 h
786-0 renal = tested on: 786-0 renal
A498 renal = tested on: A498 renal
A549 NSCLC = tested on: A549 NSCLC
ACHN renal = tested on: ACHN renal
BT-549 breast = tested on: BT-549 breast
CAKI-1 renal = tested on: CAKI-1 renal
CCRF-CEM leukemia = tested on: CCRF-CEM leukemia
COLO 205 colon = tested on: COLO 205 colon
DU-145 prostate = tested on: DU-145 prostate
EKVX NSCLC = tested on: EKVX NSCLC
HCC-2998 colon = tested on: HCC-2998 colon
HCT-15 colon = tested on: HCT-15 colon
HL-60(TB) leukemia = tested on: HL-60(TB) leukemia
HOP-62 NSCLC = tested on: HOP-62 NSCLC
HOP-92 NSCLC = tested on: HOP-92 NSCLC
HS 578T breast = tested on: HS 578T breast
HT29 colon = tested on: HT29 colon
IGROV1 ovarian = tested on: IGROV1 ovarian
K-562 leukemia = tested on: K-562 leukemia
KM12 colon = tested on: KM12 colon
LOX IMVI melanoma = tested on: LOX IMVI melanoma
M14 melanoma = tested on: M14 melanoma
MALME-3M melanoma = tested on: MALME-3M melanoma
MCF7 breast = tested on: MCF7 breast
MDA-MB-231 breast = tested on: MDA-MB-231 breast
MDA-MB-435 = tested on: MDA-MB-435
MOLT-4 leukemia = tested on: MOLT-4 leukemia
NCI-H226 lung = tested on: NCI-H226 lung
NCI-H23 lung = tested on: NCI-H23 lung
NCI-H460 lung = tested on: NCI-H460 lung
NCI-H522 lung = tested on: NCI-H522 lung
NCI/ADR-RES ovarian = tested on: NCI/ADR-RES ovarian
OVCAR-4 ovarian = tested on: OVCAR-4 ovarian
OVCAR-5 ovarian = tested on: OVCAR-5 ovarian
OVCAR-8 ovarian = tested on: OVCAR-8 ovarian
PC-3 prostate = tested on: PC-3 prostate
RPMI-8226 leukemia = tested on: RPMI-8226 leukemia
RXF 393 renal = tested on: RXF 393 renal
SF-268 CNS = tested on: SF-268 CNS
SF-295 CNS = tested on: SF-295 CNS
SF-539 CNS = tested on: SF-539 CNS
SK-MEL-2 melanoma = tested on: SK-MEL-2 melanoma
SK-MEL-28 melanoma = tested on: SK-MEL-28 melanoma
SK-MEL-5 melanoma = tested on: SK-MEL-5 melanoma
SK-OV-3 ovarian = tested on: SK-OV-3 ovarian
SN12C renal = tested on: SN12C renal
SNB-19 CNS = tested on: SNB-19 CNS
SNB-75 CNS = tested on: SNB-75 CNS
SR leukemia = tested on: SR leukemia
SW-620 colon = tested on: SW-620 colon
T-47D breast = tested on: T-47D breast
TK-10 renal = tested on: TK-10 renal
U251 CNS = tested on: U251 CNS
UACC-257 melanoma = tested on: UACC-257 melanoma
UACC-62 melanoma = tested on: UACC-62 melanoma
UO-31 renal = tested on: UO-31 renal

Which GI50 (786-0 renal) does the source give for Nc1ccccc1NC(=O)c1ccc(NC(=O)C/C=C/c2cccnc2)cn1 here?
The GI50 was 1.52 µM.

And the TGI (786-0 renal)?
Its TGI is 8.17 µM.

And the GI50 (A498 renal)?
Its GI50 is 0.347 µM.

And the TGI (A498 renal)?
Its TGI is 1.62 µM.

What about the GI50 (A549 NSCLC) of the same compound?
Its GI50 is 2.04 µM.

What about the TGI (A549 NSCLC) of the same compound?
The TGI was > 50 µM.

What about the GI50 (ACHN renal) of the same compound?
The GI50 was 1.52 µM.

What about the TGI (ACHN renal) of the same compound?
Its TGI is > 50 µM.

What about the GI50 (BT-549 breast) of the same compound?
The GI50 was 0.777 µM.

What about the TGI (BT-549 breast) of the same compound?
The TGI was 3.73 µM.

What about the GI50 (CAKI-1 renal) of the same compound?
The GI50 was 1.68 µM.

And the TGI (CAKI-1 renal)?
Its TGI is 13 µM.

What about the GI50 (CCRF-CEM leukemia) of the same compound?
The GI50 was 0.216 µM.

And the TGI (CCRF-CEM leukemia)?
Its TGI is > 50 µM.

And the GI50 (COLO 205 colon)?
The GI50 was 0.445 µM.

What about the TGI (COLO 205 colon) of the same compound?
The TGI was 2.39 µM.

What about the GI50 (DU-145 prostate) of the same compound?
Its GI50 is 0.544 µM.

What about the TGI (DU-145 prostate) of the same compound?
Its TGI is 2.06 µM.

And the GI50 (EKVX NSCLC)?
The GI50 was 2.38 µM.

What about the TGI (EKVX NSCLC) of the same compound?
Its TGI is > 50 µM.

What about the GI50 (HCC-2998 colon) of the same compound?
Its GI50 is 0.801 µM.

And the TGI (HCC-2998 colon)?
The TGI was 4.26 µM.

What about the GI50 (HCT-15 colon) of the same compound?
Its GI50 is 0.523 µM.

And the TGI (HCT-15 colon)?
The TGI was > 50 µM.

What about the GI50 (HL-60(TB) leukemia) of the same compound?
Its GI50 is 0.284 µM.

What about the TGI (HL-60(TB) leukemia) of the same compound?
Its TGI is > 29.4 µM.

What about the GI50 (HOP-62 NSCLC) of the same compound?
The GI50 was 1.11 µM.

What about the TGI (HOP-62 NSCLC) of the same compound?
Its TGI is > 24.9 µM.

And the GI50 (HOP-92 NSCLC)?
The GI50 was 0.0953 µM.

What about the TGI (HOP-92 NSCLC) of the same compound?
The TGI was 1.26 µM.

What about the GI50 (HS 578T breast) of the same compound?
Its GI50 is 0.826 µM.

What about the TGI (HS 578T breast) of the same compound?
The TGI was 37.1 µM.

What about the GI50 (HT29 colon) of the same compound?
Its GI50 is 0.531 µM.

And the TGI (HT29 colon)?
The TGI was > 33.9 µM.

And the GI50 (IGROV1 ovarian)?
The GI50 was 0.601 µM.

And the TGI (IGROV1 ovarian)?
Its TGI is > 50 µM.

What about the GI50 (K-562 leukemia) of the same compound?
Its GI50 is 0.213 µM.

What about the TGI (K-562 leukemia) of the same compound?
The TGI was > 50 µM.

And the GI50 (KM12 colon)?
Its GI50 is 1.43 µM.

What about the TGI (KM12 colon) of the same compound?
Its TGI is > 20.5 µM.

And the GI50 (LOX IMVI melanoma)?
Its GI50 is 0.286 µM.

What about the TGI (LOX IMVI melanoma) of the same compound?
Its TGI is 3.95 µM.

And the GI50 (M14 melanoma)?
The GI50 was 0.704 µM.

What about the TGI (M14 melanoma) of the same compound?
Its TGI is 11.4 µM.

And the GI50 (MALME-3M melanoma)?
The GI50 was 0.19 µM.

And the GI50 (MCF7 breast)?
The GI50 was 0.806 µM.

What about the TGI (MCF7 breast) of the same compound?
Its TGI is > 13.5 µM.

What about the GI50 (MDA-MB-231 breast) of the same compound?
Its GI50 is 3.35 µM.

And the TGI (MDA-MB-231 breast)?
The TGI was > 50 µM.

And the GI50 (MDA-MB-435)?
Its GI50 is 1.1 µM.

What about the TGI (MDA-MB-435) of the same compound?
The TGI was > 16 µM.

And the GI50 (MOLT-4 leukemia)?
The GI50 was 0.724 µM.

What about the TGI (MOLT-4 leukemia) of the same compound?
Its TGI is > 50 µM.

What about the GI50 (NCI-H226 lung) of the same compound?
Its GI50 is 1.08 µM.

What about the TGI (NCI-H226 lung) of the same compound?
Its TGI is 19.6 µM.

And the GI50 (NCI-H23 lung)?
Its GI50 is 1.45 µM.

What about the TGI (NCI-H23 lung) of the same compound?
Its TGI is > 24.9 µM.

And the GI50 (NCI-H460 lung)?
The GI50 was 0.745 µM.

And the TGI (NCI-H460 lung)?
Its TGI is > 37.4 µM.

And the GI50 (NCI-H522 lung)?
Its GI50 is 0.334 µM.

What about the TGI (NCI-H522 lung) of the same compound?
Its TGI is 3.37 µM.

What about the GI50 (NCI/ADR-RES ovarian) of the same compound?
Its GI50 is 1.16 µM.

And the TGI (NCI/ADR-RES ovarian)?
Its TGI is > 50 µM.

What about the GI50 (OVCAR-4 ovarian) of the same compound?
The GI50 was 1.99 µM.

What about the TGI (OVCAR-4 ovarian) of the same compound?
Its TGI is > 50 µM.

And the GI50 (OVCAR-5 ovarian)?
Its GI50 is 0.509 µM.

And the TGI (OVCAR-5 ovarian)?
Its TGI is > 50 µM.

And the GI50 (OVCAR-8 ovarian)?
Its GI50 is 0.0839 µM.

What about the TGI (OVCAR-8 ovarian) of the same compound?
The TGI was > 50 µM.

And the GI50 (PC-3 prostate)?
Its GI50 is 0.806 µM.

And the TGI (PC-3 prostate)?
The TGI was > 50 µM.

And the GI50 (RPMI-8226 leukemia)?
The GI50 was 0.336 µM.

What about the TGI (RPMI-8226 leukemia) of the same compound?
Its TGI is > 10.2 µM.

What about the GI50 (RXF 393 renal) of the same compound?
Its GI50 is 0.864 µM.

What about the TGI (RXF 393 renal) of the same compound?
The TGI was 5.9 µM.

And the GI50 (SF-268 CNS)?
Its GI50 is 1.3 µM.

What about the TGI (SF-268 CNS) of the same compound?
The TGI was > 40 µM.

And the GI50 (SF-295 CNS)?
The GI50 was 1.4 µM.

And the TGI (SF-295 CNS)?
Its TGI is 8.28 µM.

And the GI50 (SF-539 CNS)?
The GI50 was 0.148 µM.

And the TGI (SF-539 CNS)?
Its TGI is 3.07 µM.

And the GI50 (SK-MEL-2 melanoma)?
Its GI50 is 0.816 µM.

And the TGI (SK-MEL-2 melanoma)?
The TGI was 5.09 µM.

What about the GI50 (SK-MEL-28 melanoma) of the same compound?
Its GI50 is 0.866 µM.

What about the TGI (SK-MEL-28 melanoma) of the same compound?
Its TGI is 2.65 µM.

And the GI50 (SK-MEL-5 melanoma)?
Its GI50 is 0.958 µM.

What about the TGI (SK-MEL-5 melanoma) of the same compound?
Its TGI is 2.37 µM.

And the GI50 (SK-OV-3 ovarian)?
Its GI50 is 1.67 µM.

And the TGI (SK-OV-3 ovarian)?
The TGI was > 27.4 µM.

And the GI50 (SN12C renal)?
The GI50 was 0.329 µM.

What about the TGI (SN12C renal) of the same compound?
The TGI was > 50 µM.

And the GI50 (SNB-19 CNS)?
The GI50 was 1.72 µM.

And the TGI (SNB-19 CNS)?
The TGI was > 50 µM.

What about the GI50 (SNB-75 CNS) of the same compound?
The GI50 was 0.674 µM.

And the TGI (SNB-75 CNS)?
Its TGI is > 47.6 µM.

And the GI50 (SR leukemia)?
The GI50 was 0.435 µM.

What about the TGI (SR leukemia) of the same compound?
The TGI was > 50 µM.

What about the GI50 (SW-620 colon) of the same compound?
The GI50 was 0.188 µM.

And the TGI (SW-620 colon)?
Its TGI is > 14.8 µM.

What about the GI50 (T-47D breast) of the same compound?
The GI50 was 0.279 µM.

And the TGI (T-47D breast)?
The TGI was > 13.7 µM.

What about the GI50 (TK-10 renal) of the same compound?
Its GI50 is 0.0583 µM.

What about the TGI (TK-10 renal) of the same compound?
The TGI was 1.8 µM.

What about the GI50 (U251 CNS) of the same compound?
Its GI50 is 0.732 µM.

And the TGI (U251 CNS)?
The TGI was > 23.6 µM.

What about the GI50 (UACC-257 melanoma) of the same compound?
The GI50 was 0.798 µM.

And the TGI (UACC-257 melanoma)?
Its TGI is > 13.3 µM.

And the GI50 (UACC-62 melanoma)?
Its GI50 is 0.745 µM.

And the TGI (UACC-62 melanoma)?
Its TGI is 3.6 µM.

What about the GI50 (UO-31 renal) of the same compound?
The GI50 was 0.702 µM.

And the TGI (UO-31 renal)?
The TGI was 16.6 µM.
